Structures are written as SMILES. Structures can show the parent of a compound that is named as a salt.

The first assay concerns Hmox1. The experiment in a line: Hmox1 target gene expression in RAW264.7 macrophages. It counts as cell-based. To be noted: RAW264.7; 50 μM and 100 μM; FIG. 4. As for the experimental part:
RAW264.7 macrophages are seeded at a density of 100,000 cells/well in a 96-well plate in DMEM supplemented with 10% FBS and Penn/strep. 16 hours later, medium is aspirated and replaced with 90 μl/well of serum-free DMEM. A fatty acid fumarate conjugate, DHA and EPA are brought up in 100% EtOH to a concentration of 100 mM and then diluted 1:100 In 100% FBS for a 20× stock solution consisting of 1 mM compound and 1% EtOH. The fatty acid fumarate conjugate 20× stock solutions are diluted 1:2 in FBS supplemented with 1% EtOH for a 500 uM 10× stock solution, whereas equal volumes of the DHA and EPA 20× stock solutions are mixed to create a 10× stock solution containing 500 μm each of DHA and EPA. […] The compounds are allowed to pre-incubate for 2 hours before stimulation of 100 ng/ml LPS (10 μl of 1 μg/ml LPS is added to each well). Following 3 hours of LPS stimulation, cells are washed once in 1× PBS, aspirated dry, and flash frozen in liquid nitrogen. RNA is then isolated and converted to cDNA using the Cells to cDNA kit (Ambion) according to the manufacturer's protocol. Transcript levels are then measured using ABI Taqman primer/probe assay kits, normalized to GAPDH using the deltaCt method, and the data expressed relative to vehicle only control.
In the case of `COC(=O)/C=C/C(=O)NCCNC(=O)CCCC[C@@H]1CCSS1` [Compound I-105, (R,E)-methyl 4-(2-(5-(1,2-dithiolan-3-yl)pentanamido)ethylamino)-4-oxobut-2-enoate], the “effect on the target gene Hmox1” value is “positive effect”.

The next assay has as its system NF-κB. Briefly: NF-κB luciferase reporter assay in RAW 264.7 macrophages. It counts as cell-based. The conditions noted are these: Mus musculus, RAW264.7; RAW 264.7 cells with 3× NFκB response element luciferase reporter; 2 hour pretreatment, 200 ng/ml LPS for 3 hours; read-out: NF-kB inhibitory activity. As for the experimental part: RAW 264.7 cells stably expressing a 3× NFκB response elemement-drive luciferase reporter were seeded into 96 well plates in sera-free medium (Optimem) 18 hours prior to compound application. Compounds of the invention were prepared by first making […] stock solutions in EtOH. Stock solutions were then diluted 1:100 in low LPS FBS (Gemini BenchMark 100-106), mixed vigorously and allowed to incubate at room temperature for 30 minutes, 1:2 serial dilutions were then made in FBS supplemented with 1% EtOH, mixed vigorously, and again allowed to incubate at room temperature for 30 minutes before adding to RAW 264.7 reporter cells (final concentrations: 10% FBS, 100 uM highest compound dilution, 0.1% EtOH) for a 2 hour pretreatment prior to stimulation with LPS. Cells were then stimulated with 200 ng/ml LPS or vehicle control for 3 hours in the presence of the compounds of the invention. A set of six vehicles was left unstimulated with LPS in order to measure the assay floor. AlamarBlue viability dye (Invitrogen) was added to cells simultaneously with the delivery of LPS (final AlamarBlue concentration of 10%). After the 3 h incubation period with LPS, cell viability was measured by reading fluorescence (excitation 550 nm, emission 595 nm) with a Perkin Elmer Victor V plate reader. Then cell media was aspirated from each well. Luciferase signal was then developed by addition of the Britelite Plus reagent (Perkin Elmer). Luciferase activity was measured with the Perkin Elmer Victor V plate reader. NF-κB activity was expressed as a percent of the vehicle control wells (stimulated with LPS). Compounds were tested at 6 dose point titrations in triplicate to determine IC50 values.
Table 1 summarizes the IC50 values for a number of fatty acid fumarate conjugates in this NF-κB luciferase reporter assay. In this table, MMF=mono methyl fumarate.
In general terms: Reporter assays use an easily measured gene product as a stand-in for the process of interest.
With `CC/C=C\C/C=C\C/C=C\C/C=C\C/C=C\CCCC(=O)N[C@@H](CCCCNC(=O)/C=C/C(=O)OC)C(=O)O` [Compound I-72, (S)-2-((5Z,8Z,11Z,14Z,17Z)-icosa-5,8,11,14,17-pentaenamido)-6-((E)-4-methoxy-4-oxobut-2-enamido)hexanoic acid], the IC50 was 50 to 200 µM.

On to `CC/C=C\C/C=C\C/C=C\C/C=C\C/C=C\C/C=C\CCC(=O)NCCSSCCNC(=O)/C=C/C(=O)OC` [Compound I-5, (E)-methyl 4-(2-(2-(2-(4Z,7Z,10Z,13Z,16Z,19Z)-docosa-4,7,10,13,16,19-hexaenamidoethyl)disulfanyl)ethylamino)-4-oxobut-2-enoate], for which the IC50 fell in the range of 50 to 200 µM.

For `COC(=O)/C=C/C(=O)O` [MMF, mono methyl fumarate, reference compound], the IC50 is at least 100 µM.

As to `CC/C=C\C/C=C\C/C=C\C/C=C\C/C=C\C/C=C\CCC(=O)NCCOC(=O)/C=C/C(=O)OC` [Compound I-103, 2-(4Z,7Z,10Z,13Z,16Z,19Z)-docosa-4,7,10,13,16,19-hexaenamidoethyl methyl fumarate], the IC50 was in the range of 50 to 200 µM.

For `CC/C=C\C/C=C\C/C=C\C/C=C\C/C=C\C/C=C\CCC(=O)NCCNC(=O)/C=C/C(=O)O` [Compound I-102, (E)-4-(2-(4Z,7Z,10Z,13Z,16Z,19Z)-docosa-4,7,10,13,16,19-hexaenamidoethylamino)-4-oxobut-2-enoic acid], the IC50 was at least 100 µM.

With `CC/C=C\C/C=C\C/C=C\C/C=C\C/C=C\C/C=C\CCC(=O)NCCNC(=O)/C=C/C(=O)OCC` [Compound I-66, (E)-ethyl 4-(2-(4Z,7Z,10Z,13Z,16Z,19Z)-docosa-4,7,10,13,16,19-hexaenamidoethylamino)-4-oxobut-2-enoate], the IC50 was in the range of 50 to 200 µM.

Consider `CC/C=C\C/C=C\C/C=C\C/C=C\C/C=C\C/C=C\CCC(=O)N1C[C@@H](C)N(C(=O)/C=C/C(=O)OC)[C@@H](C)C1` [Compound I-41, (E)-methyl 4-((2R,6S)-4-((4Z,7Z,10Z,13Z,16Z,19Z)-docosa-4,7,10,13,16,19-hexaenoyl)-2,6-dimethylpiperazin-1-yl)-4-oxobut-2-enoate], for which the IC50 fell in the range of 50 to 200 µM.

As for `CC/C=C\C/C=C\C/C=C\C/C=C\C/C=C\C/C=C\CCC(=O)NCCN1C(=O)CC(SC[C@H](NC(=O)/C=C/C(=O)OC)C(=O)OC)C1=O` (stereo partly drawn) [Compound I-39, (E)-methyl 4-((R)-3-(1-(2-(4Z,7Z,10Z,13Z,16Z,19Z)-docosa-4,7,10,13,16,19-hexaenamidoethyl)-2,5-dioxopyrrolidin-3-ylthio)-1-methoxy-1-oxopropan-2-ylamino)-4-oxobut-2-enoate], the IC50 fell in the range of 50 to 200 µM.

In the case of `CC/C=C\C/C=C\C/C=C\C/C=C\C/C=C\C/C=C\CCC(=O)N(C)CCN(C)C(=O)/C=C/C(=O)OC` [Compound I-104, (E)-methyl 4-(methyl(2-((4Z,7Z,10Z,13Z,16Z,19Z)-N-methyldocosa-4,7,10,13,16,19-hexaenamido)ethyl)amino)-4-oxobut-2-enoate], the IC50 was at least 100 µM.

Staying with this assay, now noted: RAW 264.7 cells with 3× NFκB response element luciferase reporter; 2 hour pretreatment, 200 ng/ml LPS for 3 hours.
In the case of `CC/C=C\C/C=C\C/C=C\C/C=C\C/C=C\C/C=C\CCC(=O)NCCNC(=O)/C=C/C(=O)OC` [Compound I-67], the NF-kB inhibitory activity entry is on record as “+ +”.

For `CC/C=C\C/C=C\C/C=C\C/C=C\C/C=C\CCCC(=O)NCCNC(=O)/C=C/C(=O)OC` [Compound I-2, (E)-methyl 4-(2-(5Z,8Z,11Z,14Z,17Z) -eicosa-5,8,11,14,17-pentaenamidoethylamino)-4-oxobut-2-enoate], the NF-kB inhibitory activity result was “+ +”.

For `CC/C=C\C/C=C\C/C=C\C/C=C\C/C=C\C/C=C\CCC(=O)NCCN(C)CCNC(=O)/C=C/C(=O)OC` [Compound I-4, (E)-methyl 4-(2-((2-(4Z,7Z,10Z,13Z,16Z,19Z)-docosa-4,7,10,13,16,19-hexaenamidoethyl)(methyl)amino)ethylamino)-4-oxobut-2-enoate], the NF-kB inhibitory activity entry is reported as “+ +”.

As to `CC/C=C\C/C=C\C/C=C\C/C=C\C/C=C\C/C=C\CCC(=O)NCCOCCNC(=O)/C=C/C(=O)OC` [Compound I-3, (E)-methyl 4-(2-(2-(4Z,7Z,10Z,13Z,16Z,19Z)-docosa-4,7,10,13,16,19-hexaenamidoethoxy)ethylamino)-4-oxobut-2-enoate], the NF-kB inhibitory activity entry is recorded as “+ +”.

Take `CC/C=C\C/C=C\C/C=C\C/C=C\C/C=C\C/C=C\CCC(=O)NCC(C)(C)NC(=O)/C=C/C(=O)OC` [Compound I-22]: the NF-kB inhibitory activity result is “+ +”.

In the case of `CC/C=C\C/C=C\C/C=C\C/C=C\C/C=C\C/C=C\CCC(=O)NCCCC[C@H](NC(=O)/C=C/C(=O)OC)C(=O)OC` [Compound I-6, (S)-methyl 6-((4Z,7Z,10Z,13Z,16Z,19Z)-docosa-4,7,10,13,16,19-hexaneamido)-2-((E)-4-methoxy-4-oxobut-2-enamido)hexanoate], the NF-kB inhibitory activity result is listed as “+ +”.

Turning to `CC/C=C\C/C=C\C/C=C\C/C=C\C/C=C\C/C=C\CCC(=O)N1CCN(C(=O)/C=C/C(=O)OC)CC1` [Compound I-40, (E)-methyl 4-(4-(4Z,7Z,10Z,13Z,16Z,19Z)-docosa-4,7,10,13,16,19-hexaenoylpiperazin-1-yl)-4-oxobut-2-enoate], the NF-kB inhibitory activity result is “+ +”.

For a further assay, the system named is IL-1β. The experiment in a line: IL-1β gene expression in LPS-stimulated RAW264.7 macrophages. It counts as cell-based. The conditions noted are these: RAW264.7; 50 μM and 100 μM; FIG. 4. As for the experimental part: RAW264.7 macrophages were seeded at a density of 100,000 cells/well in a 96-well plate in DMEM supplemented with 10% FBS and Penn/strep. 16 hours later, medium was aspirated and replaced with 90 μl/well of serum-free DMEM. A fatty acid fumarate conjugate, DHA and monomethyl-fumarate (MMF) were brought up in 100% EtOH to a concentration of 100 mM and then diluted 1:100 in 100% FBS for a stock solution consisting of 1 mM compound and 1% EtOH. these stock solutions were then diluted 1:10 in FBS supplemented with 1% EtOH to generate a 100 μM of a fatty acid fumarate conjugate and 100 μM each of DHA and MMF. 10 μl was then added to the RAW246.7 cells to generate final concentrations 10 μM of the fatty acid fumarate conjugate or 10 μM each DHA and MMF, along with vehicle only control. […] IL-1β and TNF-α transcript levels were then measured using Taqman primer/probe assay sets (Applied Biosystems), normalized to GAPDH using the deltaCt method, and the data expressed relative to vehicle only control. […]
RAW264.7 macrophages are seeded at a density of 100,000 cells/well in a 96-well plate in DMEM supplemented with 10% FBS and Penn/strep. […] Transcript levels are then measured using ABI Taqman primer/probe assay kits, normalized to GAPDH using the deltaCt method, and the data expressed relative to vehicle only control.
As to `COC(=O)/C=C/C(=O)NCCNC(=O)CCCC[C@@H]1CCSS1` [Compound I-105, (R,E)-methyl 4-(2-(5-(1,2-dithiolan-3-yl)pentanamido)ethylamino)-4-oxobut-2-enoate], the “effect on IL-1β target gene expression” value is “positive effect”.

These data come from patent publication US9289503B2, “Fatty acid fumarate derivatives and their uses” (Catabasis Pharmaceuticals, Inc., priority 2010, dated 2016).
